Data as given in publication PMC5154332 (Neuropharmacology, 2017).
Where “and” joins values, the source holds several entries; their conditions need not be identical. Equal entries are not always repeated. Where two headings read alike, the source gives them in different places.

What was measured:
hNav1.4 channels = hNav1.4 channels (Homo sapiens, UniProt P35499); assay: cell-based
rat model of myotonia = assay: In vivo antimyotonic activity, time of righting reflex
hERG potassium channel = hERG potassium channel (Homo sapiens, UniProt Q12809); assay: Patch-clamp of hERG potassium currents in transfected tsA201 cells; format: cell-based
Chain of hERG potassium channel (Q12809 whole entry): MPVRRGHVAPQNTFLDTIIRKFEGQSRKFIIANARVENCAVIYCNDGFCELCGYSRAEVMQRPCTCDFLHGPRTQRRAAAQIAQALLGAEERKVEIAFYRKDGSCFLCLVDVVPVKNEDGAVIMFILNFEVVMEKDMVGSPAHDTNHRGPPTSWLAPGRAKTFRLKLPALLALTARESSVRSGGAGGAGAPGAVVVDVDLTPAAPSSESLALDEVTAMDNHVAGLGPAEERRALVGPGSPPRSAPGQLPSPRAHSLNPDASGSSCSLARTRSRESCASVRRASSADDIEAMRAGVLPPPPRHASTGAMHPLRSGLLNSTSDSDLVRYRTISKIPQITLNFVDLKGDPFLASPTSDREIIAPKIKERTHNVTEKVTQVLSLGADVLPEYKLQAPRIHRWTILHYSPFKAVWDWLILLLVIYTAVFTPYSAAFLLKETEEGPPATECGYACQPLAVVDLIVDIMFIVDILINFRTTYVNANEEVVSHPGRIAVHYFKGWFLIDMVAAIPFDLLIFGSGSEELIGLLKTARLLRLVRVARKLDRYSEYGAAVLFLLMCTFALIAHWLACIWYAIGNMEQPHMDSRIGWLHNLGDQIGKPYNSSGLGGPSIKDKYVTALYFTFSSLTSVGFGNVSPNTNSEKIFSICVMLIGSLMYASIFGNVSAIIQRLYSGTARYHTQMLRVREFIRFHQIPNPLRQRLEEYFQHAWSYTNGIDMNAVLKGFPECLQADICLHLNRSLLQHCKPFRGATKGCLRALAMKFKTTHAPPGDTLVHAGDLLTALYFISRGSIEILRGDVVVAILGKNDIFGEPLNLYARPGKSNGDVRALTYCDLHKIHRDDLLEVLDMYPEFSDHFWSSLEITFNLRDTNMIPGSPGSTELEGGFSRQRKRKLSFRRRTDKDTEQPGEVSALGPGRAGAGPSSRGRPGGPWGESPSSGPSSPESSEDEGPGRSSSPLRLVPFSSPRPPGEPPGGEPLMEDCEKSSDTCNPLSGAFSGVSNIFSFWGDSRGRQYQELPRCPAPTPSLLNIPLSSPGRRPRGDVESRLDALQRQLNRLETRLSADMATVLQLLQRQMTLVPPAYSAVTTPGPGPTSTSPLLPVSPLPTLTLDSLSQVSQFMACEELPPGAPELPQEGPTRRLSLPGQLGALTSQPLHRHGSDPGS

hNav1.4 – WT = hNav1.4 – WT (Homo sapiens, UniProt P35499); settings: cited from earlier work; for 0.1-to-10 Hz ratio: ratio of IC50 values
Chain of hNav1.4 – WT (P35499 whole entry): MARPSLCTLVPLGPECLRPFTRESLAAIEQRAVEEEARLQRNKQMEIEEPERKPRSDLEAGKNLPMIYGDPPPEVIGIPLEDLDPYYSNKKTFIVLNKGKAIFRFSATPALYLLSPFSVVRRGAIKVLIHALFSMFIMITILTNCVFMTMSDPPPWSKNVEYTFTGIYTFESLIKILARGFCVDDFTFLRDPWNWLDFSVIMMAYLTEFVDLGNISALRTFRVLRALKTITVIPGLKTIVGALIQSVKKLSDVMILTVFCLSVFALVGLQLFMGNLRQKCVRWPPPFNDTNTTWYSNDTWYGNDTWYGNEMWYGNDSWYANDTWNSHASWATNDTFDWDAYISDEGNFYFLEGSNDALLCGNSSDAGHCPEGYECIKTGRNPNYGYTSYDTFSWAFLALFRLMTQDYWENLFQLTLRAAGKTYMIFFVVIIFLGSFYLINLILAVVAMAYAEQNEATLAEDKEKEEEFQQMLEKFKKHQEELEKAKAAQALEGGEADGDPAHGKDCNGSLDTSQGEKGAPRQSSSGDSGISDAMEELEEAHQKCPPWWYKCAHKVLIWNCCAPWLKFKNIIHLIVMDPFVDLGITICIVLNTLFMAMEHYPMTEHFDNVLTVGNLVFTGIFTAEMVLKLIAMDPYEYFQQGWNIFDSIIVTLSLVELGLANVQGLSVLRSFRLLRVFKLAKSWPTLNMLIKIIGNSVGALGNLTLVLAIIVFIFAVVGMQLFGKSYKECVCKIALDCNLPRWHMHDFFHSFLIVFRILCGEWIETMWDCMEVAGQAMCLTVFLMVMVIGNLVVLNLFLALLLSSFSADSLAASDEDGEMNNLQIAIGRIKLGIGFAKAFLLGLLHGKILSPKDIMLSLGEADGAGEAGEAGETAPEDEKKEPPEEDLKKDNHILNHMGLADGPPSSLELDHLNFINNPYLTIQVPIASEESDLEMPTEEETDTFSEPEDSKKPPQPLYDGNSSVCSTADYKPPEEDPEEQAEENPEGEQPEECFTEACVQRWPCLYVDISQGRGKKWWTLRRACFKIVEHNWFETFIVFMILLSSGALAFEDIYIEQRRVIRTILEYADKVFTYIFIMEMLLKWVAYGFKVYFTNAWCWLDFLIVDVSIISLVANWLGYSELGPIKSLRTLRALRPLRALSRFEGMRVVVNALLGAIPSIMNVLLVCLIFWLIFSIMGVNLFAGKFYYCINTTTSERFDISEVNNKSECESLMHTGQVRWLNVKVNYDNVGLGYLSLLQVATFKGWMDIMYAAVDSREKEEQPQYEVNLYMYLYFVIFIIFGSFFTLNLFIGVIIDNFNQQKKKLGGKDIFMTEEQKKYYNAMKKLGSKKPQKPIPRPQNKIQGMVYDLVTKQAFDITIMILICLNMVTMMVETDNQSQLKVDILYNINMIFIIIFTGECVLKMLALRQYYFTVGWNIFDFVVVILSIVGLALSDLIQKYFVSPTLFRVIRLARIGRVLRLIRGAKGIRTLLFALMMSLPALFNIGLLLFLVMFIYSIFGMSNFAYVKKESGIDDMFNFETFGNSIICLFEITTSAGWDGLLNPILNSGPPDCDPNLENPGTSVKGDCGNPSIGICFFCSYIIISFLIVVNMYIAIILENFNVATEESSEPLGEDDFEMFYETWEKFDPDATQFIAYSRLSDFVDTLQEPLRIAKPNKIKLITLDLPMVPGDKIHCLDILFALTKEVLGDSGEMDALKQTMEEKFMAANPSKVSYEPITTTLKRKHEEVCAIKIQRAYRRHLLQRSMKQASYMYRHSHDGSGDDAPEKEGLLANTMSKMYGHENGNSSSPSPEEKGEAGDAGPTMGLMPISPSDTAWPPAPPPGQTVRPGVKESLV

hNav1.4 - F1586C = hNav1.4 - F1586C (Homo sapiens, UniProt P35499, F1586C); settings: ref Desaphy et al., 2012, cited from earlier work
Chain of hNav1.4 - F1586C (P35499 whole entry F1586C): as the sequence (P35499 whole entry) above, with F1586C counted along it

[1] = system: murine C2C12 skeletal muscle cells; assay: In vitro cytotoxicity, CCK-8 cell viability; format: cell-based; settings: C2C12, 6 h, from 100 μM to 1 mM
[2] = humans; ref Lalka et al., 1976; cited from earlier work
HeLa = settings: 100 μM; ref Ghelardini et al., 2010; cited from earlier work
MRC-5 = settings: 100 μM; ref Ghelardini et al., 2010; cited from earlier work
[3] = current at end of first voltage step

Chain of hNav1.4 channels (P35499 whole entry): as the sequence (P35499 whole entry) above

For `Cc1cccc(C)c1OCC(C)N` (stereo not drawn) [Mexiletine, mexiletine], the “In vitro nH” value (hNav1.4 channels) was 1.2 ± 0.2, the IC50 (hNav1.4 channels; In vitro IC50) was 17 µM and 16.9 µM and the “In vivo Min” value (rat model of myotonia; minimal TRR value of the dose-response fit) was 18.0 ± 7.3%. The “maximal TRR reduction” value (rat model of myotonia; oral, from dose-response fit) was about 80%, the “concentration at which inhibition of hERG currents was complete” value (hERG potassium channel; [3]) was 1000 µM and the “concentrations at which inhibition of hERG currents was observed” value (hERG potassium channel; [3]) was “greater than 1 μM”. The IC50 (hERG potassium channel; hERG IC50, tail currents at −50 mV after test depolarization at −10 mV) was 43 µM, the “ratio between hERG and hNav1.4 (myotonia-like condition) IC50” value (hERG potassium channel; hERG IC50 versus hNav1.4 IC50 at 50 Hz) was 2.5 fold and the “hERG nH” value (hERG potassium channel; tail currents, Hill slope factor) was 0.79 ± 0.07. The “Tonic block (0.1 Hz) nH” value (hNav1.4 – WT; ref Desaphy et al., 2012) was 0.9 ± 0.1, the “Phasic block (10 Hz) nH” value (hNav1.4 – WT; ref Desaphy et al., 2012) was 0.8 ± 0.1 and the “0.1-to-10 Hz ratio” value (hNav1.4 – WT; ref Desaphy et al., 2012) was 10.3. For the same molecule, the IC50 (hNav1.4 – WT; read-out: Phasic block (10 Hz) IC50, 10 Hz, ref Desaphy et al., 2012) was 24 ± 2 µM, the “Tonic block (0.1 Hz) nH” value (hNav1.4 - F1586C; 0.1 Hz) was 1.1 ± 0.1 and the “Phasic block (10 Hz) nH” value (hNav1.4 - F1586C; 10 Hz) was 1.0 ± 0.2. For the same molecule, the “0.1-to-10 Hz ratio” value (hNav1.4 - F1586C; ratio of IC50 values) was 1.2.
For `Cc1cccc(C)c1NC(=O)C(C)N` (stereo not drawn) [Tocainide, tocainide], the “reduction of cell viability” value [1] is listed as “about 20%”, the “Tonic block (0.1 Hz) nH” value (hNav1.4 – WT; ref Ghelardini et al., 2010) is listed as 1.0 ± 0.1 and the “Phasic block (10 Hz) nH” value (hNav1.4 – WT; ref Ghelardini et al., 2010) is listed as 1.1 ± 0.2. For the same molecule, the “0.1-to-10 Hz ratio” value (hNav1.4 – WT; ref Ghelardini et al., 2010) was 3.8, the oral bioavailability [2] was about 100% and the plasma protein bound [2] was about 50%. The HeLa cell viability (HeLa) was “reduction” and the MRC-5 cell viability (MRC-5) was “reduction”.
